Measured values reported in patent US8012979B2, “Compounds and their uses 707” (AstraZeneca AB, priority 2007, dated 2011).

What follows are molecules tested against T1, human active recombinant p38α-6His tagged (Homo sapiens, UniProt Q16539) (assay: p38 Alpha Enzyme Assay (AlphaScreen, biotinylated-ATF2 substrate)). Conditions: pre-incubated 4 hours at 37° C., reaction initiated with ATP; 0.5 nM enzyme; read-out: p38 pIC50 (converted).
T1 construct: 6His
Type: biochemical
Procedure: The ability of the compounds of formula (I) to inhibit p38 kinase may be determined using the following biological assay:
Enzyme assays were performed in polypropylene 96 well plates. The following solutions were added to each well; 10 μL of compound dilutions in assay buffer (20 mM HEPES pH 7.4, containing 20 mM magnesium acetate, 0.005% (w/v) Tween-20, 10 mM DTT) containing 1% (v/v) DMSO or assay buffer containing 1% (v/v) DMSO alone, 70 μL of assay buffer containing 36 nM substrate (biotinylated-ATF2) and 10 μL of an appropriate dilution of human active recombinant p38α-6His tagged. Depending on batch of p38, an appropriate dilution was typically a 5 nM solution to give a final enzyme concentration of 0.5 nM. At this stage, background control wells also received 50 μL of AlphaScreen quench buffer (10 mM HEPES pH 7.4 containing 100 mM EDTA, 0.2% (w/v) bovine serum albumin). The plate was covered, pre-incubated for 4 hours at 37° C. and the enzyme reaction initiated by addition of 10 μL 1 mM ATP. After incubation for a further 45 minutes at 37° C., the reaction was stopped by addition of 50 μL quench reagent and 50 μL of the quenched reaction mixture transferred to an opaque, white 96-well plate. Detection reagent, 25 μL of 10 mM HEPES pH 7.4 containing 100 mM EDTA, 0.2% (w/v) bovine serum albumin, 0.3 nM anti phosphoATF2 antibody and 25 μg/mL of ‘AlphaScreen protein A acceptor and donor beads’ (PerkinElmer Inc.), was added to all wells in a darkened room, the plate sealed and left in the dark for at least 5 hours before AlphaScreen readings were taken using a Perkin Elmer EnVision reader. Total, uninhibited activity was determined from assays performed in each assay plate. The mean control in the absence of p38 activity was subtracted from each well. Data were expressed as percent inhibition of total activity using equation 1. Percent Inhibition=100*(1−Test/Control) Eq.1 Where . . . . • Test=p38 kinase activity in the presence of compound • Control=p38 kinase activity in the absence of compound.
pIC50 is defined as the logarithm of the reciprocal of the concentration of compound required for 50% reduction in total p38 kinase activity.

T1 sequence (Q16539 whole entry): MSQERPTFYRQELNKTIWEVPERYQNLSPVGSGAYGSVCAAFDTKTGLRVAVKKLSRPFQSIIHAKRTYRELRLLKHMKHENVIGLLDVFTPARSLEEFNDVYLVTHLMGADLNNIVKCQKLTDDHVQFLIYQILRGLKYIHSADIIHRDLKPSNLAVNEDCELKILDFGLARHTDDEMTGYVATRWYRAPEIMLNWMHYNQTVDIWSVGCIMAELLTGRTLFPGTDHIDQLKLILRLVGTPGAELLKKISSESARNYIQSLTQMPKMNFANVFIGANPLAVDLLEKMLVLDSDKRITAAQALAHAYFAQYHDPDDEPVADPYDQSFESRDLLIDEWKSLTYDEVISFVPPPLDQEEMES

Row | IC50 [nM] | SMILES
1 | 31.6 | Cc1ccc(C(=O)NC2CC2)cc1-c1ccc2c(=O)n(Cc3ccncc3)cc(C(=O)N(C)C3CCN(C)CC3)c2c1 [Example 55, 6-(5-(Cyclopropylcarbamoyl)-2-methylphenyl)-N-methyl-N-(1-methylpiperidin-4-yl)-1-oxo-2-(pyridin-4-ylmethyl)-1,2-dihydroisoquinoline-4-carboxamide]
2 | 7.94 | Cc1ccc(C(=O)NC2CC2)cc1-c1ccc2c(=O)n(Cc3ccncc3)cc(C(=O)N3CCC(N(C)C)CC3)c2c1 [Example 56, N-Cyclopropyl-3-(4-(4-(dimethylamino)piperidine-1-carbonyl)-1-oxo-2-(pyridin-4-ylmethyl)-1,2-dihydroisoquinolin-6-yl)-4-methylbenzamide]
3 | 1.58 | Cc1ccc(C(=O)NC2CC2)cc1-c1ccc2c(=O)n(Cc3ccncc3)cc(C(=O)NC3CCNCC3)c2c1 [Example 57, 6-(5-Cyclopropylcarbamoyl-2-methyl-phenyl)-1-oxo-2-pyridin-4-ylmethyl-1,2-dihydro-isoquinoline-4-carboxylic acid piperidin-4-ylamide]
4 | 2 | Cc1ccc(C(=O)NC2CC2)cc1-c1ccc2c(=O)n(Cc3ccncc3)cc(C(=O)N3CCC(N)CC3)c2c1 [Example 58, 3-(4-(4-Aminopiperidine-1-carbonyl)-1-oxo-2-(pyridin-4-ylmethyl)-1,2-dihydroisoquinolin-6-yl)-N-cyclopropyl-4-methylbenzamide]
5 | 0.316 | Cc1ccc(C(=O)NC2CC2)cc1-c1ccc2c(=O)n(CC3CC3)cc(CN3CCCN(C)CC3)c2c1 [Example 59, N-Cyclopropyl-3-[2-cyclopropylmethyl-4-(4-methyl-[1,4]diazepan-1-ylmethyl)-1-oxo-1,2-dihydro-isoquinolin-6-yl]-4-methyl-benzamide]
6 | 0.398 | Cc1c(F)cc(C(=O)NC2CC2)cc1-c1ccc2c(=O)n(Cc3ccccc3)cc(C(=O)NCCN(C)C)c2c1 [Example 60, 2-Benzyl-6-(5-(cyclopropylcarbamoyl)-3-fluoro-2-methylphenyl)-N-(2-(dimethylamino)ethyl)-1-oxo-1,2-dihydroisoquinoline-4-carboxamide]
7 | 10 | Cc1ccc(C(=O)NC2CC2)cc1-c1ccc2c(=O)n(Cc3ccccc3)cc(CN3CCCC3)c2c1 [Example 61, 3-(2-Benzyl-1-oxo-4-(pyrrolidin-1-ylmethyl)-1,2-dihydroisoquinolin-6-yl)-N-cyclopropyl-4-methylbenzamide]
8 | 5.01 | Cc1ccc(C(=O)NC2CC2)cc1-c1ccc2c(=O)n(CC3CC3)cc(CN3CCC(N4CCCCC4)CC3)c2c1 [Example 62, 3-(4-(1,4′-Bipiperidin-1′-ylmethyl)-2-(cyclopropylmethyl)-1-oxo-1,2-dihydroisoquinolin-6-yl)-N-cyclopropyl-4-methylbenzamide]
9 | 1 | Cc1ccc(C(=O)NC2CC2)cc1-c1ccc2c(=O)n(CC3CC3)cc(CN3CCN[C@@H](C)C3)c2c1 [Example 63, (S)—N-Cyclopropyl-3-(2-(cyclopropylmethyl)-4-((3-methylpiperazin-1-yl)methyl)-1-oxo-1,2-dihydroisoquinolin-6-yl)-4-methylbenzamide]
10 | 3.16 | CNCCN(C)Cc1cn(CC2CC2)c(=O)c2ccc(-c3cc(C(=O)NC4CC4)ccc3C)cc12 [Example 64, N-Cyclopropyl-3-(2-(cyclopropylmethyl)-4-((methyl(2-(methylamino)ethyl)amino)methyl)-1-oxo-1,2-dihydroisoquinolin-6-yl)-4-methylbenzamide]
11 | 7.94 | Cc1ccc(C(=O)NC2CC2)cc1-c1ccc2c(=O)n(CC3CC3)cc(CNC3CCN(C)CC3)c2c1 [Example 65, N-Cyclopropyl-3-(2-(cyclopropylmethyl)-4-((1-methylpiperidin-4-ylamino)methyl)-1-oxo-1,2-dihydroisoquinolin-6-yl)-4-methylbenzamide]
12 | 0.158 | Cc1ccc(C(=O)NC2CC2)cc1-c1ccc2c(=O)n(CC3CC3)cc(CN3CCC(N)CC3)c2c1 [Example 66, 3-(4-((4-Aminopiperidin-1-yl)methyl)-2-(cyclopropylmethyl)-1-oxo-1,2-dihydroisoquinolin-6-yl)-N-cyclopropyl-4-methylbenzamide]
13 | 5.01 | Cc1ccc(C(=O)NC2CC2)cc1-c1ccc2c(=O)n(CC3CC3)cc(CNCCN(C)C)c2c1 [Example 67, N-Cyclopropyl-3-(2-(cyclopropylmethyl)-4-((2-(dimethylamino)ethylamino)methyl)-1-oxo-1,2-dihydroisoquinolin-6-yl)-4-methylbenzamide]
14 | 3.98 | Cc1ccc(C(=O)NC2CC2)cc1-c1ccc2c(=O)n(CC3CC3)cc(CN(C)CCN(C)C)c2c1 [Example 68, N-Cyclopropyl-3-(2-(cyclopropylmethyl)-4-(((2-(dimethylamino)ethyl)(methyl)amino)methyl)-1-oxo-1,2-dihydroisoquinolin-6-yl)-4-methylbenzamide]
15 | 0.2 | Cc1ccc(C(=O)NC2CC2)cc1-c1ccc2c(=O)n(CC3CC3)cc(CN3CCC(N(C)C)CC3)c2c1 [Example 69, N-Cyclopropyl-3-(2-(cyclopropylmethyl)-4-((4-(dimethylamino)piperidin-1-yl)methyl)-1-oxo-1,2-dihydroisoquinolin-6-yl)-4-methylbenzamide]
16 | 0.158 | Cc1ccc(C(=O)NC2CC2)cc1-c1ccc2c(=O)n(CC3CC3)cc(CN3CCCNCC3)c2c1 [Example 70, N-Cyclopropyl-3-(2-cyclopropylmethyl-4-[1,4]diazepan-1-ylmethyl-1-oxo-1,2-dihydro-isoquinolin-6-yl)-4-methyl-benzamide]
17 | 10 | Cc1ccc(C(=O)NC2CC2)cc1-c1ccc2c(=O)n(CC3CC3)cc(CNCCCN(C)C)c2c1 [Example 71, N-Cyclopropyl-3-(2-(cyclopropylmethyl)-4-((3-(dimethylamino)propylamino)methyl)-1-oxo-1,2-dihydroisoquinolin-6-yl)-4-methylbenzamide]
18 | 0.398 | Cc1ccc(C(=O)NC2CC2)cc1-c1ccc2c(=O)n(CC3CC3)cc(CN3CCCN(CCO)CC3)c2c1 [Example 72, N-Cyclopropyl-3-(2-(cyclopropylmethyl)-4-((4-(2-hydroxyethyl)-1,4-diazepan-1-yl)methyl)-1-oxo-1,2-dihydroisoquinolin-6-yl)-4-methylbenzamide]
19 | 1.26 | Cc1ccc(C(=O)NC2CC2)cc1-c1ccc2c(=O)n(CC3CC3)cc(CN3CCCN(C(C)C)CC3)c2c1 [Example 73, N-Cyclopropyl-3-(2-(cyclopropylmethyl)-4-((4-isopropyl-1,4-diazepan-1-yl)methyl)-1-oxo-1,2-dihydroisoquinolin-6-yl)-4-methylbenzamide]
20 | 0.631 | Cc1ccc(C(=O)NC2CC2)cc1-c1ccc2c(=O)n(CC3CC3)cc(CN3CCN(C)CC3)c2c1 [Example 74, N-Cyclopropyl-3-(2-(cyclopropylmethyl)-4-((4-methylpiperazin-1-yl)methyl)-1-oxo-1,2-dihydroisoquinolin-6-yl)-4-methylbenzamide]
21 | 0.0501 | Cc1c(F)cc(C(=O)NC2CC2)cc1-c1ccc2c(=O)n(CC3CC3)cc(CN3CCCN(C)CC3)c2c1 [Example 75, N-Cyclopropyl-3-(2-(cyclopropylmethyl)-4-((4-methyl-1,4-diazepan-1-yl)methyl)-1-oxo-1,2-dihydroisoquinolin-6-yl)-5-fluoro-4-methylbenzamide]
22 | 0.1 | Cc1c(F)cc(C(=O)NC2CC2)cc1-c1ccc2c(=O)n(CC3CC3)cc(CN3CCN(C)CC3)c2c1 [Example 76, N-Cyclopropyl-3-(2-(cyclopropylmethyl)-4-((4-methylpiperazin-1-yl)methyl)-1-oxo-1,2-dihydroisoquinolin-6-yl)-5-fluoro-4-methylbenzamide]
23 | 1.58 | Cc1c(F)cc(C(=O)NC2CC2)cc1-c1ccc2c(=O)n(CC3CC3)cc(CNCCCN(C)C)c2c1 [Example 77, N-Cyclopropyl-3-(2-(cyclopropylmethyl)-4-((3-(dimethylamino)propylamino)methyl)-1-oxo-1,2-dihydroisoquinolin-6-yl)-5-fluoro-4-methylbenzamide]
24 | 0.158 | Cc1c(F)cc(C(=O)NC2CC2)cc1-c1ccc2c(=O)n(CC3CC3)cc(CN3CCCN(CCO)CC3)c2c1 [Example 78, N-Cyclopropyl-3-(2-(cyclopropylmethyl)-4-((4-(2-hydroxyethyl)-1,4-diazepan-1-yl)methyl)-1-oxo-1,2-dihydroisoquinolin-6-yl)-5-fluoro-4-methylbenzamide]
25 | 0.631 | Cc1c(F)cc(C(=O)NC2CC2)cc1-c1ccc2c(=O)n(CC3CC3)cc(CN3CCC[N+]([O-])(CCO)CC3)c2c1 (stereo not shown) [Example 79, 4-((6-(5-(Cyclopropylcarbamoyl)-3-fluoro-2-methylphenyl)-2-(cyclopropylmethyl)-1-oxo-1,2-dihydroisoquinolin-4-yl)methyl)-1-(2-hydroxyethyl)-1,4-diazepane 1-oxide]
